Data reported in article doi:10.1101/694877v2 (biorxiv, 2019).

Target: hAC2 (Homo sapiens, UniProt Q08462)
Assay: stimulation of adenylate cyclase activity, HTRF cAMP assay
Type: biochemical
Settings: 25 μM forskolin alone, no Gsα, no serum; 1 mM ATP, 2 mM MgCl2, pH 7.5

hAC2, sequence (Q08462 whole entry): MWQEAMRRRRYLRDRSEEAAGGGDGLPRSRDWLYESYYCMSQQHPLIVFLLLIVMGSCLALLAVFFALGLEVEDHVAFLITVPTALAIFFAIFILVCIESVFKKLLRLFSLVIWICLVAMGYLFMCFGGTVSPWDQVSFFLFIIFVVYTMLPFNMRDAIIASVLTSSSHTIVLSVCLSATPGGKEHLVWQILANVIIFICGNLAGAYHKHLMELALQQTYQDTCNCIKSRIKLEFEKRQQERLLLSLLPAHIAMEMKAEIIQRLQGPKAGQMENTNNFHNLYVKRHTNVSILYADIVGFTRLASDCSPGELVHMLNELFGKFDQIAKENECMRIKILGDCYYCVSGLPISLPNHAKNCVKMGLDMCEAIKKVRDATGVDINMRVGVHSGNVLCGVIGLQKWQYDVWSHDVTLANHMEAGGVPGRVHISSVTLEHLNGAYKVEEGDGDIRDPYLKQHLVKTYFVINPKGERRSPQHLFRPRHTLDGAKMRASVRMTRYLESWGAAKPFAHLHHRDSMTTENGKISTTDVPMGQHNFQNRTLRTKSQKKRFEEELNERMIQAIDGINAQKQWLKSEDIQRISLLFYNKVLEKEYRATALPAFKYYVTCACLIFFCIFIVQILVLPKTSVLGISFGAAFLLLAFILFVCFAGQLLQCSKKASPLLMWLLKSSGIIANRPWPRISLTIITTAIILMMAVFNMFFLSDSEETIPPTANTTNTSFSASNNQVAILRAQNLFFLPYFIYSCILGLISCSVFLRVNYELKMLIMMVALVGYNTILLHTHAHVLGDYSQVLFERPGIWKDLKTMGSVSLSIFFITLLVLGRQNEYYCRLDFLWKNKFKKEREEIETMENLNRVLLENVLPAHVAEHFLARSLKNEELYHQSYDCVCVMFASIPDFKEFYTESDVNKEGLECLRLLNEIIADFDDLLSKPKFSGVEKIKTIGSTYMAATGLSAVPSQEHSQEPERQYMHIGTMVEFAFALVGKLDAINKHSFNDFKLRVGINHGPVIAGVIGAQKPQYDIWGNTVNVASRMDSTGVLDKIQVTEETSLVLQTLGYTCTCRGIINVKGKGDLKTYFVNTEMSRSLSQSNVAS

## C=C[C@@]1(C)CC(=O)[C@]2(O)[C@@]3(C)[C@@H](O)CCC(C)(C)[C@@H]3[C@H](O)[C@H](OC(C)=O)[C@@]2(C)O1 [forskolin]
  fold stimulation at 25 μM: ~ 2.4 fold
